Data published in patent US10040790B2, “Bicyclic heterocycles as FGFR inhibitors” (Incyte Corporation, priority 2013, dated 2018).

Assays:
Assay type in all cases: biochemical
FGFR3 = FGFR3 (Homo sapiens (Human), UniProt P22607); assay: FGFR Enzymatic Assay (FRET peptide phosphorylation), FGFR3; details: ATP 140 μM
Method: (§1) The inhibitor potency of the exemplified compounds was measured in an enzyme assay that measures peptide phosphorylation using FRET measurements to detect product formation. Inhibitors were serially diluted in DMSO and a volume of 0.5 μL was transferred to the wells of a 384-well plate. For FGFR3, a 10 μL volume of FGFR3 enzyme (Millipore) diluted in assay buffer (50 mM HEPES, 10 mM MgCl2, 1 mM EGTA, 0.01% Tween-20, 5 mM DTT, pH 7.5) was added to the plate and pre-incubated for 5-10 minutes. Appropriate controls (enzyme blank and enzyme with no inhibitor) were included on the plate. The assay was initiated by the addition of a 10 μL solution containing biotinylated EQEDEPEGDYFEWLE peptide substrate (SEQ ID NO: 1) and ATP (final concentrations of 500 nM and 140 μM respectively) in assay buffer to the wells. The plate was incubated at 25° C. for 1 hr. The reactions were ended with the addition of 10 μL/well of quench solution (50 mM Tris, 150 mM NaCl, 0.5 mg/mL BSA, pH 7.8; 30 mM EDTA with Perkin Elmer Lance Reagents at 3.75 nM Eu-antibody PY20 and 180 nM APC-Streptavidin). The plate was allowed to equilibrate for ˜1 hr before scanning the wells on a PheraStar plate reader (BMG Labtech).
(§2) GraphPad prism3 was used to analyze the data. The IC50 values were derived by fitting the data to the equation for a sigmoidal dose-response with a variable slope. Y=Bottom+(Top−Bottom)/(1+10^((Log IC50−X)*HillSlope)) where X is the logarithm of concentration and Y is the response.

FGFR2 = FGFR2 (Homo sapiens (Human), UniProt P21802); assay: FGFR Enzymatic Assay (FRET peptide phosphorylation), FGFR2; details: ATP 100 μM, enzyme 0.01 nM
Method: as §1
(§3) FGFR1 and FGFR2 were measured under equivalent conditions with the following changes in enzyme and ATP concentrations: FGFR1, 0.02 nM and 210 μM, respectively and FGFR2, 0.01 nM and 100 μM, respectively. The enzymes were purchased from Millipore or Invitrogen.
as §2

FGFR1 = FGFR1 (Homo sapiens (Human), UniProt P11362); assay: FGFR Enzymatic Assay (FRET peptide phosphorylation), FGFR1; details: ATP 210 μM, enzyme 0.02 nM
Method: as §1, §3, §2

Measured: IC50

Chain of FGFR3 (P22607 23-806): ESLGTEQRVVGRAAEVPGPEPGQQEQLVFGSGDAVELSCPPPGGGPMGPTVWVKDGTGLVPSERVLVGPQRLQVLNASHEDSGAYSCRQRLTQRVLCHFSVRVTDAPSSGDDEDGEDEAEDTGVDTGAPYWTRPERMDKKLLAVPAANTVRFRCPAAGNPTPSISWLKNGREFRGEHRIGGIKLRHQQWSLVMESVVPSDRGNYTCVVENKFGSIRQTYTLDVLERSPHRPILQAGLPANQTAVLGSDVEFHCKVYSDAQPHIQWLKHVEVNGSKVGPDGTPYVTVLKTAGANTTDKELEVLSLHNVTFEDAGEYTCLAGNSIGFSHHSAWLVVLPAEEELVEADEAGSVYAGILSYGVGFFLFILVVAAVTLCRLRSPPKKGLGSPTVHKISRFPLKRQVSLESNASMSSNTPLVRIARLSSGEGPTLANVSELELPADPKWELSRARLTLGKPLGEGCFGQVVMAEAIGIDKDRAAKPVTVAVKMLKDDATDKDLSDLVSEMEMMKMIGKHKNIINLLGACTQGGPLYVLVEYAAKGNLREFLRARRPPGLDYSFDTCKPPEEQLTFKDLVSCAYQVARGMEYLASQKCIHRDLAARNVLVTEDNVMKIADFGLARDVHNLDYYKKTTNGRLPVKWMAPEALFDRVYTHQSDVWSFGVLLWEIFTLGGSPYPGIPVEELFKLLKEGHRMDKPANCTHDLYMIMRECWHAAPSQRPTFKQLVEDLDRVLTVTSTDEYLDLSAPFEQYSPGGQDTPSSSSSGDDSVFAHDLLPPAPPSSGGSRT
Chain of FGFR2 (P21802 22-821): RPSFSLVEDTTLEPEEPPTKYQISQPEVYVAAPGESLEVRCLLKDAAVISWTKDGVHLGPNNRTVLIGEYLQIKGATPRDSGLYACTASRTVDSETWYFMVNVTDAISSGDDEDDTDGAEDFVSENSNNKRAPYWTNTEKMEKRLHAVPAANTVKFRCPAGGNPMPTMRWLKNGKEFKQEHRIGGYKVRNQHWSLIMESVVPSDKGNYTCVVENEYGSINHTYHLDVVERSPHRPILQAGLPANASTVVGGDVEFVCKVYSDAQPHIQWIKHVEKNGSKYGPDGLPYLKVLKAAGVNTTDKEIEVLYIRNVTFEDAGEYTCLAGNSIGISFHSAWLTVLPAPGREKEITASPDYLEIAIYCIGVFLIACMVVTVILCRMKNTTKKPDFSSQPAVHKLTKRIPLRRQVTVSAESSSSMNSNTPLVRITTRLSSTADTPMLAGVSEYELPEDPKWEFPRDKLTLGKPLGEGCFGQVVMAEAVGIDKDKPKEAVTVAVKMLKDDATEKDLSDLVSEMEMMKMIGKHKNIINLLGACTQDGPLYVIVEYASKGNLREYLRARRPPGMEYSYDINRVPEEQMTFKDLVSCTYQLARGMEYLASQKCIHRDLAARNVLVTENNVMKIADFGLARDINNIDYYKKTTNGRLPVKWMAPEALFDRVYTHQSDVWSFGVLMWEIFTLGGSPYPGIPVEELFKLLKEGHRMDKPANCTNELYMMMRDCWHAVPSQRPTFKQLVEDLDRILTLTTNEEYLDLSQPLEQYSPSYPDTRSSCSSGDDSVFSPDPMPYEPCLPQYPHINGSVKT
Chain of FGFR1 (P11362 22-822): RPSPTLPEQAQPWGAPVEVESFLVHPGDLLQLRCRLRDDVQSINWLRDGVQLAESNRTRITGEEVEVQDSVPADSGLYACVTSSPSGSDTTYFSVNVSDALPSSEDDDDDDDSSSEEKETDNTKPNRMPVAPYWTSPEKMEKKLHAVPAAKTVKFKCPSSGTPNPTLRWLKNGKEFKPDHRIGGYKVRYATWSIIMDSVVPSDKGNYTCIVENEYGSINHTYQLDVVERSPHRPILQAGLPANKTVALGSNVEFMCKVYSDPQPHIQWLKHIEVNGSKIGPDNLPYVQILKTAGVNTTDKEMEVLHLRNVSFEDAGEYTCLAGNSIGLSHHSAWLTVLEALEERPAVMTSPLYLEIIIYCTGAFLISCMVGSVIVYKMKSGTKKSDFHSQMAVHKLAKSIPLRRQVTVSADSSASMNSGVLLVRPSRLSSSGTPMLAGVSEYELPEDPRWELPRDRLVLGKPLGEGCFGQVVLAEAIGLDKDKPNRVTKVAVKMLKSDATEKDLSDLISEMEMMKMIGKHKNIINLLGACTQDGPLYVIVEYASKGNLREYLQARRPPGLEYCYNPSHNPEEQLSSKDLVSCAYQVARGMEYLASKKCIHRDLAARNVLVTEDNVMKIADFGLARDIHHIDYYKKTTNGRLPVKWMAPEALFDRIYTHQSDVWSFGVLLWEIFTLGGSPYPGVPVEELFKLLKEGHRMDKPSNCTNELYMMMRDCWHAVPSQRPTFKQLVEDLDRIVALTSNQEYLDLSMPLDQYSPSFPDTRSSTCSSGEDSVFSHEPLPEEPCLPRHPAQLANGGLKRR

COc1cc(OC)c(F)c(N2Cc3cnc(N)c(C)c3N(C)C2=O)c1F [Example 1, 7-amino-3-(2,6-difluoro-3,5-dimethoxyphenyl)-1,8-dimethyl-3,4-dihydropyrido[4,3-d]pyrimidin-2(1H)-one]
< 100 nM: all assays above

CCc1c(N)ncc2c1N(C)C(=O)N(c1c(F)c(OC)cc(OC)c1F)C2 [Example 2, 7-amino-3-(2,6-difluoro-3,5-dimethoxyphenyl)-8-ethyl-1-methyl-3,4-dihydropyrido[4,3-d]pyrimidin-2(1H)-one]
< 100 nM: all assays above

COc1cc(OC)c(F)c(N2Cc3cnc(N)c(C#N)c3N(C)C2=O)c1F [Example 3, 7-amino-3-(2,6-difluoro-3,5-dimethoxyphenyl)-1-methyl-2-oxo-1,2,3,4-tetrahydropyrido-[4,3-d]pyrimidine-8-carbonitrile]
< 100 nM: all assays above

CCOc1c(N)ncc2c1N(C)C(=O)N(c1c(F)c(OC)cc(OC)c1F)C2 [Example 4, 7-amino-3-(2,6-difluoro-3,5-dimethoxyphenyl)-8-ethoxy-1-methyl-3,4-dihydropyrido[4,3-d]pyrimidin-2(1H)-one]
< 100 nM: all assays above

COCCOc1c(N)ncc2c1N(C)C(=O)N(c1c(F)c(OC)cc(OC)c1F)C2 [Example 5, 7-amino-3-(2,6-difluoro-3,5-dimethoxyphenyl)-8-(2-methoxyethoxy)-1-methyl-3,4-dihydro-pyrido[4,3-d]pyrimidin-2(1H)-one]
< 100 nM: all assays above

COc1cc(OC)c(F)c(N2Cc3cnc(N)c(OCCN4CCN(C)CC4)c3N(C)C2=O)c1F [Example 6, 7-amino-3-(2,6-difluoro-3,5-dimethoxyphenyl)-1-methyl-8-[2-(4-methylpiperazin-1-yl)ethoxy]-3,4-dihydropyrido[4,3-d]pyrimidin-2(1H)-one]
< 100 nM: all assays above

COc1cc(OC)c(F)c(N2Cc3cnc(N)c(Oc4ccccc4)c3N(C)C2=O)c1F [Example 7, 7-amino-3-(2,6-difluoro-3,5-dimethoxyphenyl)-1-methyl-8-phenoxy-3,4-dihydropyrido[4,3-d]pyrimidin-2(1H)-one]
< 100 nM: all assays above

COc1cc(OC)c(F)c(N2Cc3cnc(N)c(-c4cnn(C)c4)c3N(C)C2=O)c1F [Example 8, 7-amino-3-(2,6-difluoro-3,5-dimethoxyphenyl)-1-methyl-8-(1-methyl-1H-pyrazol-4-yl)-3,4-dihydropyrido[4,3-d]pyrimidin-2(1H)-one]
< 100 nM: all assays above

CCn1cc(-c2c(N)ncc3c2N(C)C(=O)N(c2c(F)c(OC)cc(OC)c2F)C3)cn1 [Example 9, 7-amino-3-(2,6-difluoro-3,5-dimethoxyphenyl)-1-methyl-8-(1-ethyl-1H-pyrazol-4-yl)-3,4-dihydropyrido[4,3-d]pyrimidin-2(1H)-one]
< 100 nM: all assays above

COc1cc(OC)c(F)c(N2Cc3cnc(N)c(-c4cnn(CCO)c4)c3N(C)C2=O)c1F [Example 10, 7-amino-3-(2,6-difluoro-3,5-dimethoxyphenyl)-8-[1-(2-hydroxyethyl)-1H-pyrazol-4-yl]-1-methyl-3,4-dihydropyrido[4,3-d]pyrimidin-2(1H)-one]
< 100 nM: all assays above

COc1cc(OC)c(F)c(N2Cc3cnc(N)c(-c4cnn(C5CCNCC5)c4)c3N(C)C2=O)c1F [Example 11, 7-amino-3-(2,6-difluoro-3,5-dimethoxyphenyl)-1-methyl-8-(1-piperidin-4-yl-1H-pyrazol-4-yl)-3,4-dihydropyrido[4,3-d]pyrimidin-2(1H)-one]
< 100 nM: all assays above
